# Target: T1, human mGluR2 receptor (Homo sapiens, UniProt Q14416)
# T1 construct: expressed in transfected cells; host or cells: CHO cells (membrane preparation)
# Assay: [35S]GTPγS binding assay (GTPγS-PAM): positive allosteric modulation in presence of glutamate at EC25, membranes from transfected CHO cells
# Format: biochemical
# Conditions: in presence of mGluR2 agonist glutamate at predetermined EC25 concentration, averages of duplicate values of 11-concentration response curves
# Source text: The compounds provided in the present invention are positive allosteric modulators of mGluR2. These compounds appear to potentiate glutamate responses by binding to an allosteric site other than the glutamate binding site. The response of mGluR2 to a concentration of glutamate is increased when compounds of Formula (I) are present. Compounds of Formula (I) are expected to have their effect substantially at mGluR2 by virtue of their ability to enhance the function of the receptor. The behaviour of positive allosteric modulators tested at mGluR2 using the [^35S]GTPγS binding assay method described below and which is suitable for the identification of such compounds, and more particularly the compounds according to Formula (I), are shown in Table 4.
# [^35S]GTPγS Binding Assay
# The [^35S]GTPγS binding is a functional membrane-based assay used to study G-protein coupled receptor (GPCR) function whereby incorporation of a non-hydrolysable form of GTP, [^35S]GTPγS (guanosine 5′-triphosphate, labelled with […] ^35S), is measured. The G-protein o subunit catalyzes the exchange of guanosine 5′-diphosphate (GDP) by guanosine triphosphate (GTP) and on activation of the GPCR by an agonist, [^35S]GTPγS, becomes incorporated and cannot be cleaved to continue the exchange cycle (Harper (1998) Current Protocols in Pharmacology 2.6.1-10, John Wiley & Sons, Inc.). […] Here we describe the use of the [^35S]GTPγS binding assay using membranes from cells transfected with the human mGluR2 receptor and adapted from Schaffhauser et al ((2003) Molecular Pharmacology 4:798-810) for the detection of the positive allosteric modulation (PAM) properties of the compounds of this invention.
# CHO-cells were cultured to pre-confluence and stimulated with 5 mM butyrate for 24 hours, prior to washing in PBS, and then collection by scraping in homogenisation buffer (50 mM Tris-HCl buffer, pH 7.4, 4° C.). Cell lysates were homogenized briefly (15 s) using an ultra-turrax homogenizer. The homogenate was centrifuged at 23 500×g for 10 minutes and the supernatant discarded. The pellet was resuspended in 5 mM Tris-HCl, pH 7.4 and centrifuged again (30 000×g, 20 min, 4° C.). The final pellet was resuspended in 50 mM HEPES, pH 7.4 and stored at −80° C. in appropriate aliquots before use. Protein concentration was determined by the Bradford method (Bio-Rad, USA) with bovine serum albumin as standard.
# Measurement of mGluR2 positive allosteric modulators in membranes containing human mGluR2 was performed using frozen membranes that were thawed and briefly homogenised prior to pre-incubation in 96-well microplates (15 μg/assay well, 30 minutes, 30° C.) in assay buffer (50 mM HEPES pH 7.4, 100 mM NaCl, 3 mM MgCl2, 50 μM GDP, 10 μg/ml saponin,) with increasing concentrations of positive allosteric modulator (from 0.3 nM to 50 μM) and either a minimal pre-determined concentration of glutamate (PAM assay), or no added glutamate. For the PAM assay, membranes were pre-incubated with glutamate at EC25 concentration, i.e. a concentration that gives 25% of the maximal response glutamate, and is in accordance to published data (Pin et al. (1999) Eur. J. Pharmacol. 375:277-294). After addition of [^35S]GTPγS (0.1 nM, f.c.) to achieve a total reaction volume of 200 μl, microplates were shaken briefly and further incubated to allow [^35S]GTPγS incorporation on activation (30 minutes, 30° C.). The reaction was stopped by rapid vacuum filtration over glass-fibre filter plates (Unifilter 96-well GF/B filter plates, Perkin-Elmer, Downers Grove, USA) microplate using a 96-well plate cell harvester (Filtermate, Perkin-Elmer, USA), and then by washing three times with 300 μl of ice-cold wash buffer (Na2PO4.2H2O 10 mM, NaH2PO4.H2O 10 mM, pH=7.4). Filters were then air-dried, and 40 μl of liquid scintillation cocktail (Microscint-O) was added to each well, and membrane-bound [^35S]GTPγS was measured in a 96-well scintillation plate reader (Top-Count, Perkin-Elmer, USA). […]
# T1 sequence (Q14416 19-872): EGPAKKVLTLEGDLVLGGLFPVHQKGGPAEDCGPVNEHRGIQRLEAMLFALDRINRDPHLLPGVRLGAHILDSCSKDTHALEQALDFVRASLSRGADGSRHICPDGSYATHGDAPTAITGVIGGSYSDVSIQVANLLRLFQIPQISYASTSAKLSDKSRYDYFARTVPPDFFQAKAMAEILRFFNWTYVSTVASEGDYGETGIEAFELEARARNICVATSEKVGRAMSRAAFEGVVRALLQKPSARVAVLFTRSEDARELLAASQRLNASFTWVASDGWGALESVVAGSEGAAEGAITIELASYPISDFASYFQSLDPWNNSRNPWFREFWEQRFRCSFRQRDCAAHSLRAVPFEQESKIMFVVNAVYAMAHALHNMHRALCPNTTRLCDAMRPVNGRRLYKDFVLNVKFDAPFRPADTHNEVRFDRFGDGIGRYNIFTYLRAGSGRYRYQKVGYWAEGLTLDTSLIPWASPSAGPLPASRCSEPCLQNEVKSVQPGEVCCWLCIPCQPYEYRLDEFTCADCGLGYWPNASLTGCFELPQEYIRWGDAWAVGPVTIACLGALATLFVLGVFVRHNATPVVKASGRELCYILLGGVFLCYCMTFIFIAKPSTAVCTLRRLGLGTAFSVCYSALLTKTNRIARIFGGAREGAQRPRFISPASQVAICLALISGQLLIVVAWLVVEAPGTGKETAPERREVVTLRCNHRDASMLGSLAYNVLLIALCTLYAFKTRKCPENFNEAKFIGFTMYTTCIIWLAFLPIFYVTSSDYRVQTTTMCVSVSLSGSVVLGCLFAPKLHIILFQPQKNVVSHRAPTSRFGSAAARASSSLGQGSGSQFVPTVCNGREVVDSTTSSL
row,SMILES,GTPgS - hR2 PAM pEC50
1,"CCCCn1ccc(-c2ccc(Oc3ccnc(C)c3)cc2)c(C#N)c1=O [1-064, 3-cyano-1-butyl-4-[4-(2-methyl-pyridin-4-yloxy)-phenyl]-pyridine-2(1H)-one]",6.4

# Same assay, conditions: in presence of mGluR2 agonist glutamate at predetermined EC25 concentration, averages of duplicate values of 11-concentration response curves, read-out: GTPgS - hR2 PAM pEC50 (converted)
row,SMILES,EC50
1,N#Cc1c(N[C@@H]2C[C@H]2c2ccccc2)ccn(CC2CC2)c1=O (racemic) [1-294],3160 nM
2,CC(C)CCn1ccc(N[C@@H]2C[C@H]2c2ccccc2)c(C#N)c1=O (racemic) [1-304],2000 nM
3,N#Cc1c(-c2ccc(OCC3CC3)cc2F)ccn(CC2CC2)c1=O [1-003],631 nM
4,N#Cc1c(-c2ccc(Oc3ccnc(N4CCCC4)c3)cc2)ccn(CC2CC2)c1=O [1-005],398 nM
5,N#Cc1c(-c2ccc(Oc3ccnc(N4CCCCC4)c3)cc2)ccn(CC2CC2)c1=O [1-006],316 nM
6,CN(C)c1ccc(-c2ccn(CC3CCCCC3)c(=O)c2C#N)cc1 [1-010],100 nM
7,COc1ccc(-c2ccn(CC3CCCCC3)c(=O)c2C#N)cc1 [1-012],398 nM
8,Cc1ccccc1Cn1ccc(-c2cccs2)c(C#N)c1=O [1-015],3980 nM
9,COc1ccc(-c2ccn(Cc3ccccc3C)c(=O)c2C#N)cc1 [1-016],2000 nM
10,COc1ccc(-c2ccn(Cc3cccc(C)c3)c(=O)c2C#N)cc1 [1-017],1000 nM
11,COc1ccc(-c2ccn(Cc3ccc(C)cc3)c(=O)c2C#N)cc1 [1-021],631 nM
12,COc1ccc(-c2ccn(Cc3ccc(F)cc3)c(=O)c2C#N)cc1 [1-022],316 nM
13,CC(C)Oc1ccc(-c2ccn(Cc3ccc(F)cc3)c(=O)c2C#N)cc1Cl [1-025],100 nM
14,COc1ccc(-c2ccn(Cc3cccc(Cl)c3)c(=O)c2C#N)cc1 [1-026],501 nM
15,COc1ccc(-c2ccn(Cc3ccc(Cl)cc3)c(=O)c2C#N)cc1 [1-027],501 nM
16,C[C@@H]1COC[C@H](C)N1Cc1ccc(-c2ccn(Cc3ccc(OC(F)(F)F)cc3)c(=O)c2C#N)cc1 [1-034],1260 nM
17,CC1COCC(C)N1Cc1ccc(-c2ccn(Cc3ccc(OC(F)(F)F)cc3)c(=O)c2C#N)cc1 (centres unmarked) [1-036],631 nM
18,N#Cc1c(-c2ccccc2)ccn(CCOc2ccccc2)c1=O [1-047],2510 nM
19,CC(C)Oc1ccc(-c2ccn(CCOc3ccccc3)c(=O)c2C#N)cc1Cl [1-049],126 nM

row,SMILES,EC50
1,N#Cc1c(-c2ccccc2)ccn(CCCc2ccccc2)c1=O [1-053],5010 nM
2,CCCCn1ccc(-c2ccc(Cn3ccnc3C)cc2)c(C#N)c1=O [1-060],1000 nM
3,CCCCn1ccc(-c2cccc(Oc3ccccn3)c2)c(C#N)c1=O [1-061],6310 nM
4,CCCCn1ccc(-c2cccc(Oc3ccncc3)c2)c(C#N)c1=O [1-062],6310 nM
5,CCCCn1ccc(-c2ccc(Oc3ccncc3)cc2F)c(C#N)c1=O [1-066],501 nM
6,CCCCn1ccc(-c2ccc(Oc3ncccc3C(F)(F)F)cc2)c(C#N)c1=O [1-067],158 nM
7,CCCCn1ccc(-c2ccc(Oc3cccc(C(F)(F)F)n3)cc2)c(C#N)c1=O [1-068],251 nM
8,CCCCn1ccc(-c2cccc(Oc3ccncc3C(F)(F)F)c2)c(C#N)c1=O [1-069],2510 nM
9,CCCCn1ccc(-c2ccc(Oc3ncccc3C#N)cc2)c(C#N)c1=O [1-071],631 nM
10,CCCCn1ccc(-c2ccc(Oc3ccc(C#N)cn3)cc2)c(C#N)c1=O [1-072],1580 nM
11,CCCCn1ccc(-c2ccc(Oc3ccnc(N4CCOCC4)c3)cc2)c(C#N)c1=O [1-073],398 nM
12,CCCCn1ccc(-c2ccc(Oc3ncccn3)cc2)c(C#N)c1=O [1-074],5010 nM
13,CCCCn1ccc(-c2ccc(Oc3ccncn3)cc2)c(C#N)c1=O [1-075],5010 nM
14,CCCCn1ccc(-c2ccc(Oc3cnccn3)cc2)c(C#N)c1=O [1-076],3980 nM
15,CC(C)CCn1ccc(-c2ccco2)c(C#N)c1=O [1-081],6310 nM
16,CC(C)CCn1ccc(-c2ccc(Cl)s2)c(C#N)c1=O [1-083],200 nM
17,CC(C)CCn1ccc(-c2ccc(F)cc2)c(C#N)c1=O [1-089],3160 nM
18,CC(C)CCn1ccc(-c2ccc(Br)c(Br)c2)c(C#N)c1=O [1-092],63.1 nM

# Source: patent US9266834B2, “1, 4-disubstituted 3-cyano-pyridone derivatives and their use as positive allosteric modulators of MGLUR2-receptors” (JANSSEN PHARMACEUTICALS, INC., priority 2006, dated 2016)
